Measured values: US20230031406A1, “COMPOUNDS AND COMPOSITIONS FOR TREATING CONDITIONS ASSOCIATED WITH NLRP ACTIVITY” (Novartis AG, priority 2018, published 2023)
Where two headings read alike, the source gives them in different places. Blank lines part the entries; values can stand above or below the molecule they belong to.

System: PMA-differentiated THP-1 cells
Assay: IL-1β production in PMA-differentiated THP-1 cells stimulated with gramicidin (hTHP-1 assay containing 2% fetal bovine serum; Procedures 1 and 2)
Format: cell-based, human
Conditions: 2% fetal bovine serum
Summary of the method: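 Secreted IL-1β, read by HTRF, after gramicidin challenge (5 μM, 2 h) of THP-1 cells differentiated with PMA (20 ng/ml, 16-18 h) and plated at 50,000 cells/well in 2% FBS medium. Compounds, 0.0017-100 μM final with 0.37% DMSO, were added 1 h before stimulation.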

[1] = Homo sapiens, THP-1, Table B1, class symbols, read-out: Average IC50 of compounds in hTHP-1 assay: hTHP-1 IC50
[2] = Homo sapiens, THP-1, Table B2, class symbols, read-out: hTHP-1 IC50
[3] = Table B2, class symbols, read-out: hTHP-1 IC50
[4] = Table B3, hTHP-1 assay, class symbols, read-out: IC50
[5] = Homo sapiens, THP-1, Table B3, hTHP-1 assay, class symbols, read-out: IC50
[6] = Table B1, class symbols, read-out: Average IC50 of compounds in hTHP-1 assay: hTHP-1 IC50

SMILES: C[C@@H]1CCc2c1nc1c(c2NC(=O)N=[S@@](N)(=O)c2cnc(C(C)(C)O)s2)CCC1 [Compound 162bb, (R,R)-2-(2-hydroxypropan-2-yl)-N′-((3-methyl-1,2,3,5,6,7-hexahydrodicyclo-penta[b,e]pyridin-8-yl)carbamoyl)thiazole-5-sulfonimidamide]
IC50 [1]: 40 to 200 nM

SMILES: CCc1nc2c(c(NC(=O)N=S(N)(=O)c3cc(C(C)(C)O)cs3)c1C1CC1)CCC2 (stereo not drawn) [Compound 654, N′-((3-cyclopropyl-2-ethyl-6,7-dihydro-5H-cyclopenta[b]pyridin-4-yl)carbamoyl)-4-(2-hydroxypropan-2-yl)thiophene-2-sulfonimidamide]
IC50 [2]: 200 to 1000 nM

SMILES: CC(C)(O)c1sc(S(N)(=O)=NC(=O)Nc2c3c(nc4c2CCC4(C)C)CCC3)cc1F (stereo not drawn) [Compound 613, N′-((3,3-dimethyl-1,2,3,5,6,7-hexahydrodicyclopenta[b,e]pyridin-8-yl)carbamoyl)-4-fluoro-5-(2-hydroxypropan-2-yl)thiophene-2-sulfonimidamide]
IC50 [2]: 200 to 1000 nM

SMILES: CC1(C)Cc2nc3c(c(NC(=O)N=S(N)(=O)c4cnc(C(C)(C)O)s4)c2C1)CCC3 (stereo not drawn) [Compound 147, N′-((2,2-dimethyl-1,2,3,5,6,7-hexahydrodicyclopenta[b,e]pyridin-8-yl)carbamoyl)-2-(2-hydroxypropan-2-yl)thiazole-5-sulfonimidamide]
IC50 [1]: 5000 to 30000 nM

SMILES: CCn1cc(F)c(S(N)(=O)=NC(=O)Nc2c(-c3ccccc3)cnc3c2CCC3)n1 (single isomer, unassigned) [Example 793, (R) or (S)-1-ethyl-4-fluoro-N′-((3-phenyl-6,7-dihydro-5H-cyclopenta[b]pyridin-4-yl)carbamoyl)-1H-pyrazole-3-sulfonimidamide]
IC50 (Table B4, class symbols, read-out: hTHP-1 IC50): 200 to 1000 nM

SMILES: Cc1c(C2(C)CC2)nc2c(c1NC(=O)N=S(N)(=O)c1cnc(C(C)(O)CO)s1)CCC2 (stereo not drawn) [Example 606, 2-(1,2-Dihydroxypropan-2-yl)-N′-((3-methyl-2-(1-methylcyclopropyl)-6,7-dihydro-5H-cyclopenta[b]pyridin-4-yl)carbamoyl)thiazole-5-sulfonimidamide]
IC50 (Homo sapiens, THP-1, Table B3, hTHP-1 assay, numeric values, read-out: IC50): > 30000 nM

SMILES: Cc1c(C(C)C)nc2c(c1NC(=O)N=S(N)(=O)c1sc(C(C)(C)O)cc1F)CCC2 (stereo not drawn) [Compound 645, 3 -Fluoro-5-(2-hydroxypropan-2-yl)-N′-((2-isopropyl-3-methyl-6,7-dihydro-5H-cyclopenta[b]pyridin-4-yl)carbamoyl)thiophene-2-sulfonimidamide]
IC50 [2]: 40 to 200 nM

SMILES: CCn1cc(F)c(S(N)(=O)=NC(=O)Nc2c3c(nc4c2CCC42CC2)CCC3)n1 (single isomer, unassigned) [Example 672, (S) or (R)-1-ethyl-4-fluoro-N′-((1′,5′,6′,7′-tetrahydro-2′H-spiro[cyclopropane-1,3'-dicyclopenta[b,e]pyridin]-8′-yl)carbamoyl)-1H-pyrazole-3-sulfonimidamide]
IC50 [4]: 1000 to 5000 nM

SMILES: Cc1c(C2CC2)nc2c(c1NC(=O)N=S(N)(=O)c1nc(C(C)(C)O)cs1)CCC2 (stereo not drawn) [Compound 626, N′-((2-cyclopropyl-3-methyl-6,7-dihydro-5H-cyclopenta[b]pyridin-4-yl)carbamoyl)-4-(2-hydroxypropan-2-yl)thiazole-2-sulfonimidamide]
IC50 [2]: 40 to 200 nM

SMILES: CC1(C)CCc2c1nc1c(c2NC(=O)N=[S@@](N)(=O)c2cc([C@](C)(O)CO)cs2)CCC1 [Example 651, (R)-4-((S)-1,2-dihydroxypropan-2-yl)-N′-((3,3-dimethyl-1,2,3,5,6,7-hexahydrodicyclopenta[b,e]pyridin-8-yl)carbamoyl) thiophene-2-sulfonimidamide]
IC50 [5]: 40 to 200 nM

SMILES: CC(C)c1ncc(F)c(C(C)C)c1NC(=O)N=S(N)(=O)c1cc(C(C)(C)O)cs1 (single isomer, unassigned) [Compound 148b, (S) or (R)-N′-((5-fluoro-2,4-diisopropylpyridin-3-yl)carbamoyl)-4-(2-hydroxypropan-2-yl)thiophene-2-sulfonimidamide]
IC50 [6]: 1000 to 5000 nM

SMILES: CC1CCc2c1nc1c(c2NC(=O)N=S(N)(=O)c2ncc(C(C)(C)O)s2)CCC1 (single isomer, unassigned) [Compound 140a, (R,R/S) or (S,R/S)-5-(2-hydroxypropan-2-yl)-N′-((3-methyl-1,2,3,5,6,7-hexa-hydrodicyclo-penta[b,e]pyridin-8-yl)carbamoyl)thiazole-2-sulfonimidamide]
IC50 [6]: 40 to 200 nM

SMILES: CC1(C)CCc2c1nc1c(c2NC(=O)N=S(N)(=O)c2nn(C(F)F)cc2F)CCC1 (single isomer, unassigned) [Example 722, (S) or (R)-1-(difluoromethyl)-N′-((3,3-dimethyl-1,2,3,5,6,7-hexahydrodicyclopenta[b,e]pyridin-8-yl)carbamoyl)-4-fluoro-1H-pyrazole-3-sulfonimidamide]
IC50 [4]: 1000 to 5000 nM

SMILES: CC1Cc2nc3c(c(NC(=O)N=S(N)(=O)c4cnc(C(C)(C)O)s4)c2C1)CCC3 (stereo not drawn) [Compound 152, 2-(2-hydroxypropan-2-yl)-N′-((2-methyl-1,2,3,5,6,7-hexahydrodicyclopenta[b,e]pyridin-8-yl)carbamoyl)thiazole-5-sulfonimidamide]
IC50 [1]: 200 to 1000 nM

SMILES: CCc1c(C(F)(F)F)nc2c(c1NC(=O)N=S(N)(=O)c1cnc(C(C)(C)O)s1)CCC2 (stereo not drawn) [Compound 610, N′-((3-ethyl-2-(trifluoromethyl)-6,7-dihydro-5H-cyclopenta[b]pyridin-4-yl)carbamoyl)-2-(2-hydroxypropan-2-yl)thiazole-5-sulfonimidamide]
IC50 [2]: 5000 to 30000 nM

SMILES: CC(C)(O)c1cc(S(N)(=O)=NC(=O)Nc2c3c(nc4c2CCC4(C)C)CCC3)nn1-c1ccccc1 (stereo not drawn) [Compound 663, N′-((3,3-dimethyl-1,2,3,5,6,7-hexahydrodicyclopenta[b,e]pyridin-8-yl)carbamoyl)-5-(2-hydroxypropan-2-yl)-1-phenyl-1H-pyrazole-3-sulfonimidamide]
IC50 [2]: 1000 to 5000 nM

SMILES: Cc1c(CC2CC2)nc2c(c1NC(=O)N=S(N)(=O)c1cc(C(C)(C)O)cs1)CCC2 (stereo not drawn) [Compound 655, N′-((2-(cyclopropylmethyl)-3-methyl-6,7-dihydro-5H-cyclopenta[b]pyridin-4-yl)carbamoyl)-4-(2-hydroxypropan-2-yl)thiophene-2-sulfonimidamide]
IC50 [2]: 5000 to 30000 nM

SMILES: CC(C)(O)c1nc(S(N)(=O)=NC(=O)Nc2c3c(nc4c2CCC4)CCC3)cs1 (stereo not drawn) [Compound 154]
IC50 [1]: 200 to 1000 nM

SMILES: Cc1c(C2(F)CC2)nc2c(c1NC(=O)N=S(N)(=O)c1cc(C(C)(C)O)cs1)CCC2 (single isomer, unassigned) [Example 683, (R) or (S)-N′-((2-(1-fluorocyclopropyl)-3-methyl-6,7-dihydro-5H-cyclopenta[b]pyridin-4-yl)carbamoyl)-4-(2-hydroxypropan-2-yl)thiophene-2-sulfonimidamide]
IC50 [5]: 1000 to 5000 nM

Next, values leading:

IC50 [2]: 5000 to 30000 nM
SMILES: CCn1ccc([S@@](N)(=O)=NC(=O)Nc2c(C)c(C(F)(F)F)nc3c2CCC3)n1 [Compound 731a]

IC50 [3]: 1000 to 5000 nM
SMILES: Cc1c(C2CC2)nc2c(c1NC(=O)N=S(N)(=O)c1cc(C(C)(C)O)cs1)CCC2C (single isomer, unassigned) [Compound 656d, (R, S) or (R, R) or (S, R) or (S, S)-N′-((2-Cyclopropyl-3,7-dimethyl-6,7-dihydro-5H-cyclopenta[b]pyridin-4-yl)carbamoyl)-4-(2-hydroxypropan-2-yl)thiophene-2-sulfonimidamide]

IC50 [2]: 1000 to 5000 nM
SMILES: NS(=O)(=NC(=O)Nc1c2c(nc3c1CCC31CC1)CCC2)c1cnn(C(F)F)c1 (single isomer, unassigned) [Compound 638a, (R) or (S)-1-(Difluoromethyl)-N′-((1′,5′,6′,7′-tetrahydro-2′H-spiro[cyclopropane-1,3′-dicyclopenta[b,e]pyridin]-8′-yl)carbamoyl)-1H-pyrazole-4-sulfonimidamide]

IC50 (Homo sapiens, THP-1, Table B1, numeric bounds, read-out: Average IC50 of compounds in hTHP-1 assay: hTHP-1 IC50): > 30000 nM | IC50 (Homo sapiens, THP-1, Table B2, numeric bounds, read-out: hTHP-1 IC50): > 30000 nM
SMILES: Cc1cc(C2CC2)nc(NC(=O)N=S(N)(=O)c2ncc(C(C)(C)O)s2)n1 (single isomer, unassigned) [Compound 185b, (S) or (R)-N′-((4-cyclopropyl-6-methylpyrimidin-2-yl)carbamoyl)-5-(2-hydroxypropan-2-yl)thiazole-2-sulfonimidamide]

IC50 [3]: 5000 to 30000 nM
SMILES: CCn1ccc(S(N)(=O)=NC(=O)Nc2c3c(nc4c2CCC4(C)C)CCC3)n1 (single isomer, unassigned) [Compound 697a, (S) or (R)-N′-((3,3-dimethyl-1,2,3,5,6,7-hexahydrodicyclopenta [b,e]pyridin-8-yl)carbamoyl)-1-ethyl-1H-pyrazole-3-sulfonimidamide]

IC50 [3]: 200 to 1000 nM
SMILES: CC(C)(O)c1cnc(S(N)(=O)=NC(=O)Nc2c3c(nc4c2CCC42CC2)CCC3)s1 (single isomer, unassigned) [Compound 683a, (R) or (S)-5-(2-Hydroxypropan-2-yl)-N′-((1′,5′,6′,7′-tetrahydro-2′H-spiro[cyclopropane-1,3′-dicyclopenta[b,e]pyridin]-8′-yl)carbamoyl) thiazole-2-sulfonimidamide]

IC50 [3]: 1000 to 5000 nM
SMILES: CC(C)(O)c1cc(S(N)(=O)=NC(=O)Nc2c3c(nc4c2CCC4(C)C)CCC3)nn1-c1ccc(F)cc1 (single isomer, unassigned) [Compound 705b, (R) or (S)-N′-((3,3-dimethyl-1,2,3,5,6,7-hexahydrodicyclopenta [b,e]pyridin-8-yl)carbamoyl)-1-(4-fluorophenyl)-5-(2-hydroxypropan-2-yl)-1H-pyrazole-3-sulfonimidamide]
